Assay results published in PMC6277767, “Broad and Region-Specific Impacts of the Synthetic Cannabinoid CP 55,940 in Adolescent and Adult Female Mouse Brains” (Frontiers in Molecular Neuroscience, 2018).

Experiment: CP 55,940 levels in eight brain regions 2 h after single i.p. 3 mg/kg injection (HPLC/MS/MS)
Assay type: in vivo, mouse
Conditions: for CP 55,940 Direction (relative to Veh) / CP 55,940 Magnitude (x Veh level): p .000
Procedure: The Bloomington Institutional Animal Care and Use Committee of Indiana University reviewed and approved the animal procedures. Female mice from the CD1 strain were utilized to match our study examining THC’s effects on the brain lipidome ([Leishman et al., 2018]). Mice were given a single i.p. injection of either 3 mg/kg CP or 1:1:18 cremophor:ethanol:saline vehicle (please refer to the section “3 mg/kg CP Is Relevant for Synthetic Cannabinoid Abuse and Has Stronger Effects on the Female Mouse Brain Lipidome During Adolescence” for a justification of dose and use of female mice). Three different age groups were given injections: PND 35 and PND 50 adolescents, and adult mice (PND 113). At least eight mice in each age group received CP and at least eight received vehicle. Matching the THC study time course ([Leishman et al., 2018]), mice were sacrificed via rapid decapitation 2 h after injection. Brains were immediately removed and flash-frozen in liquid nitrogen, and then stored at -80°C until dissections were performed. Brains were dissected on an ice-cold dissection plate into the following regions: STR, HIPP, CER, THAL, CTX, HYP, MID, and STEM. These abbreviations for these brain areas will be used exclusively when discussing the results generated by these specific dissections. Each dissected area was immediately placed in liquid nitrogen and then stored at -80°C until used for lipid extraction.
Tissue extracts were performed as previously described ([Bradshaw et al., 2006]; [Stuart et al., 2013]; [Raboune et al., 2014]; [Leishman et al., 2016a],[b], [2017], [2018]). First, samples were shock frozen in liquid nitrogen, weighed, and transferred to a centrifuge tube. The mass of the largest sample was multiplied by 50 to determine how many milliliters of HPLC-grade methanol (Fisher, Fair Lawn, NJ, United States) to add. Then, samples were spiked with 500 pmol deuterium-labeled NAGly (d8NAGly; Cayman Chemical, Ann Arbor, MI, United States). Samples were placed on ice in darkness for 2 h then individually homogenized and centrifuged at 19,000 × g for 20 min at 20°C. Supernatants were diluted with HPLC water (purified in house) to make a solution of 75% water, 25% supernatant. Lipids were partially purified on C18 solid phase extraction columns (Agilent, Palo Alto, CA, United States). A series of four elutions with 1.5 mL of 60%, 75%, 85%, and 100% methanol were collected ([Stuart et al., 2013]; [Leishman et al., 2016a],[b], [2018]).
As previously described ([Bradshaw et al., 2006]; [Tan et al., 2006]; [Smoum et al., 2010]; [Stuart et al., 2013]; [Tortoriello et al., 2013]; [Raboune et al., 2014]; [Leishman et al., 2016a],[b], [2017], [2018]), samples were analyzed using an Applied Biosystems API 3000 triple quadrupole mass spectrometer with electrospray ionization (Foster City, CA, United States). Using an Agilent XDB-C18 reversed phase analytical column and optimized mobile phase gradients, 20 μL from each elution were chromatographed. Two Shimadzu 10ADvp pumps (Columbia, MD, United States) provided the pressure for gradient elution. Mobile phase A: 20% methanol, 80% water (v/v) and 1 mM ammonium acetate (Sigma, St. Louis, MO, United States). Mobile phase B: 100% methanol, 1 mM ammonium acetate. Every method run began with 0% mobile phase B, reached 100% mobile phase B flowing at 0.2 mL/min, and gradually returned to 0% mobile phase B.
This screening library will be referred to as the lipidome when discussing data from this study. HPLC/MS/MS data were analyzed using Analyst software (Applied Biosystems) ([Bradshaw et al., 2006]; [Tan et al., 2006]; [Stuart et al., 2013]; [Tortoriello et al., 2013]; [Raboune et al., 2014]; [Leishman et al., 2016a],[b], [2017], [2018]). Chromatograms (Supplementary Figure 3) were generated by determining the retention time of analytes from the analytical column with a [M-1] or [M+1] parent peak and a fragmentation peak corresponding to the programmed values. […]

[1] = adult brainstem, 3mg/kg CP 55,940
[2] = adult cortex, 3 mg/kg CP 55,940
[3] = adult hypothalamus, 3mg/kg CP 55,940
[4] = adult midbrain, 3mg/kg CP 55,940
[5] = brainstem, PND35, 3 mg/kg CP 55,940 vs Veh

In the case of `CCCCCCC(C)(C)c1ccc([C@@H]2C[C@H](O)CC[C@H]2CCCO)c(O)c1` [CP 55,940], the “brain area with highest levels of CP” value (PND 35) was “CTX”, the “CP 55,940 level, Mean” value (PND 35, CER, 2 hours after acute 3 mg/kg injection) was 7.2155E-011 and the “CP 55,940 level, Mean” value (PND 35, CTX, 2 hours after acute 3 mg/kg injection) was 1.1107E-010. The “CP 55,940 level, Mean” value (PND 35, HIPP, 2 hours after acute 3 mg/kg injection) was 9.6303E-011, the “CP 55,940 level, Mean” value (PND 35, HYP, 2 hours after acute 3 mg/kg injection) was 5.3113E-011 and the “CP 55,940 level, Mean” value (PND 35, MID, 2 hours after acute 3 mg/kg injection) was 7.9142E-011. For the same compound, the “CP 55,940 level, Mean” value (PND 35, STEM, 2 hours after acute 3 mg/kg injection) was 7.0414E-011, the “CP 55,940 level, Mean” value (PND 35, STR, 2 hours after acute 3 mg/kg injection) was 5.7413E-011 and the “CP 55,940 level, Mean” value (PND 35, THAL, 2 hours after acute 3 mg/kg injection) was 8.8715E-011. For the same compound, the “CP 55,940 level, Mean” value (PND 35, Total (all brain areas), 2 hours after acute 3 mg/kg injection) was 7.8540E-011, the “CP 55,940 level, Direction (relative to Veh)” value (PND 35 hypothalamus) was “↑” and the “CP 55,940 level, Magnitude (x Veh level)” value (PND 35 hypothalamus) was “infinite”. The “CP 55,940 level: Magnitude (x Veh level)” value (PND 35 midbrain, 3mg/kg) was “infinite”, the “CP 55,940 level: Direction (rel to Veh)” value (PND 35 midbrain, 3mg/kg, one-way ANOVA) was “↑” and the “CP 55,940 mean level” value (PND 35 striatum, 3 mg/kg i.p., 2 h) was 5.74E-11 moles per gram. For the same compound, the “brain area with highest levels of CP” value (PND 50) was “HIPP”, the “CP 55,940 level, Mean” value (PND 50, CER, 2 hours after acute 3 mg/kg injection) was 7.5674E-011 and the “CP 55,940 level, Mean” value (PND 50, CTX, 2 hours after acute 3 mg/kg injection) was 8.6116E-011. For the same compound, the “CP 55,940 level, Mean” value (PND 50, HIPP, 2 hours after acute 3 mg/kg injection) was 1.2297E-010, the “CP 55,940 level, Mean” value (PND 50, HYP, 2 hours after acute 3 mg/kg injection) was 4.3769E-011 and the “CP 55,940 level, Mean” value (PND 50, MID, 2 hours after acute 3 mg/kg injection) was 1.2091E-010. For the same compound, the “CP 55,940 level, Mean” value (PND 50, STEM, 2 hours after acute 3 mg/kg injection) was 8.3747E-011, the “CP 55,940 level, Mean” value (PND 50, STR, 2 hours after acute 3 mg/kg injection) was 5.8704E-011 and the “CP 55,940 level, Mean” value (PND 50, THAL, 2 hours after acute 3 mg/kg injection) was 9.9312E-011. For the same compound, the “CP 55,940 level, Mean” value (PND 50, Total (all brain areas), 2 hours after acute 3 mg/kg injection) was 8.6438E-011, the “brain area with highest levels of CP” value (adult) was “CER” and the “CP 55,940 level, Direction (relative to Veh)” value [1] was “↑”. For the same compound, the “CP 55,940 level, Magnitude (x Veh level)” value [1] was “infinite”, the “CP 55,940 level, Mean” value (adult cortex, 3mg/kg CP 55,940) was 1.85E-10 and the “CP 55,940 Direction (relative to Veh)” value [2] was “↑”. For the same compound, the “CP 55,940 Magnitude (x Veh level)” value [2] was “infinite”, the “CP 55,940 level, Mean” value (adult female mice, brainstem, 3mg/kg CP 55,940) was 1.52E-10 and the “CP 55,940 level, Mean” value (adult hypothalamus, 3 mg/kg CP 55,940) was 1.17E-10. The “CP 55,940 Direction (relative to Veh)” value [3] was “↑”, the “CP 55,940 Magnitude (x Veh level)” value [3] was “infinite” and the “CP 55,940 level, Mean” value [4] was 2.2E-10. For the same compound, the “CP 55,940 Direction (relative to Veh)” value [4] was “↑”, the “CP 55,940 Magnitude (x Veh level)” value [4] was “infinite” and the “CP 55,940 level, Mean” value (adult, CER, 2 hours after acute 3 mg/kg injection) was 2.8002E-010. The “CP 55,940 level, Mean” value (adult, CTX, 2 hours after acute 3 mg/kg injection) was 1.8513E-010, the “CP 55,940 level, Mean” value (adult, HIPP, 2 hours after acute 3 mg/kg injection) was 2.6840E-010 and the “CP 55,940 level, Mean” value (adult, HYP, 2 hours after acute 3 mg/kg injection) was 1.1726E-010. The “CP 55,940 level, Mean” value (adult, MID, 2 hours after acute 3 mg/kg injection) was 2.2043E-010, the “CP 55,940 level, Mean” value (adult, STEM, 2 hours after acute 3 mg/kg injection) was 1.5203E-010 and the “CP 55,940 level, Mean” value (adult, STR, 2 hours after acute 3 mg/kg injection) was 2.0821E-010. The “CP 55,940 level, Mean” value (adult, THAL, 2 hours after acute 3 mg/kg injection) was 2.0002E-010, the “CP 55,940 level, Mean” value (adult, Total (all brain areas), 2 hours after acute 3 mg/kg injection) was 2.0394E-010 and the “brain area with lowest levels of CP” value (all three age groups) was “HYP”. For the same compound, the “variation of CP levels among the eight brain regions” value (all three age groups) was “twofold to threefold”, the “CP 55,940 level, Direction (relative to Veh)” value [5] was “↑” and the “CP 55,940 level, Magnitude (x Veh level)” value [5] was “infinite”. The “CP 55,940 level” value (brainstem, PND35 female mice, 3mg/kg CP 55,940, mean) was 7.04E-11.
